Usually melting point stands for the temperature of the solid-liquid transition.

`C[C@H]1CN(c2ccc(C(F)(F)F)c(CF)c2)C(=O)c2c(NC(=O)c3cccnc3N)cnn21` [[^19F]-1] came in with a melting point of 150.62 °C.
